{
  "source": "paper PMC12455572",
  "about": "“Amphipathic Proline-Rich Cell Penetrating Peptides for Targeting Mitochondria” (ACS Chemical Biology, 2025)",
  "key": {"[1]": {"system": "MCF-7 cells", "assay": "Flow cytometry (FACS): overall cellular uptake", "type": "cell-based", "conditions": "MCF-7, 1 h, 37 °C, Figure S1D", "description": "MCF-7 cells were seeded in a 24-well plate at 150′000 cells/well in DMEM (1 mL, 10% FCS), and allowed to adhere overnight. The medium was removed, the cells were washed with PBS (250 μL, 1x) and incubated with the peptide solution at 20 μM, 10 μM, 5 μM or 2.5 μM in medium (200 μL, 1% FCS) for 1 h at 37 °C. The medium was removed, and the cells were washed with PBS (250 μL, 2x). Trypsin (100 μL, 0.05%) was added, and the cells were incubated at 37 °C for 5 min. D-PBS with Mg^2+ and Ca^2+ (300 μL, 4 °C) was added, the cells were resuspended and centrifuged for 5 min at 0.4 rcf. The supernatant was carefully removed, and the cells were resuspended in a solution of PBS containing 1.5 μM PI and 2 mM EDTA (400 μL at 4 °C). The cells were added to FACS tubes and kept on ice prior to analysis. Each sample contained 10′000 cells and was analyzed in triplicate. Each experiment was repeated three times.\nFor the experiments that included the 24 h rest period, the peptides were incubated as described above. After the 1 h incubation time, the cells were washed with PBS (250 μL, 2x), DMEM (250 μL, 10% FBS) was added, and the cells were kept at 37 °C, 5% CO2 for 24 h. For a direct comparison of the effect of a 24 h rest period, another set of peptides was incubated with the cells for 1 h. Then, cells of both sets of experiments (1 h followed by the 24 h rest period versus 1 h incubation) were washed with PBS, treated with trypsin, and prepared for FACS analysis as described above. Each sample was run in triplicate and was repeated three times. […]\nMCF-7 cells were obtained from the American Type Culture Collection (ATCC).\nThe cells were grown in a humidified 5% CO2 atmosphere at 37 °C Dulbecco’s Modified Eagle’s Medium (DMEM), high glucose, GlutaMAXTM (4 mM) supplemented with L-glutamine (4 mM), gentamicin (10 mg/L), […]\nFluorescence-Activated Cell Sorting (FACS) analyzer\nOn a BD LSRFortessa flow cytometer, CF was excited at 488 nm and monitored with 530/30 bandpass, PI was excited at 561 nm and monitored with a 610/20 bandpass. Mean fluorescence values were determined from the histograms using FlowJo 10.0.6 software while dead cells were removed according to PI staining.\nBelow is an example, CF-Ahx-(ChaZZ)3, of gating, set on untreated cells and propagated to all samples.\nEach sample was run in triplicate, and each experiment was repeated at least three times.\n(1 picture or pasted object on this page, not shown here)"}, "[2]": {"system": "MCF-7 cells", "assay": "Confocal microscopy of live cells: cellular uptake and intracellular localization", "type": "cell-based", "conditions": "live MCF-7 cells, 1 h, 37 °C, DMEM + 1% FBS", "description": "MitoTracker Deep Red was used as a counter stain for mitochondria and Hoechst 33342 for the nucleus. […] To explore whether PPII-helicity is key for mitochondrial localization, we prepared peptide CF-Ahx-(ChaRR)3-NH2 with Arg instead of Gup residues. This control peptide features a flexible conformation as judged by CD spectroscopy (Figure S1B). […] These findings show the importance of the secondary structure of the CPP for subcellular organelle localization.\nMCF-7 cells were seeded in a 8-μwell Ibidi plate at 25′000 cells/well in DMEM (100 μL, 10% FCS) and allowed to adhere overnight. The medium was removed, the cells were washed with PBS (200 μL, 1x) and incubated with the peptide solution at 20 μM, 10 μM, 5 μM or 2.5 μM in DMEM (200 μL, 1% FCS) for 1 h at 37 °C. The medium was removed, and the cells were washed with PBS (200 μL, 2x). MitoTracker Deep Red was distributed at 20 nM in DMEM (200 μL, 1% FBS) and the cells were incubated at 37 °C for 25 min. The medium was removed, and the cells were washed with PBS (200 μL, 2x). Hoechst333342 was distributed at 2 μM in DMEM (200 μL, 1% FBS) and the cells were incubated at 37 °C for 5 min. The cells were washed with PBS (200 μL, 2x), and FluoroBrite medium (200 μL) was added. The live cells were monitored on the confocal microscope at 37 °C, 5% CO2.\nFor the cells subjected to a 24 h rest period, the FluoroBrite medium was exchanged for DMEM (200 μL, 10% FBS) after the initial imaging, and the cells were kept in this medium for 24 h. The culture medium was then exchanged for FluoroBrite DMEM, and the cells were imaged again.\nFluorescence images of cells were collected using a Nikon Eclipse T1 (inverse) microscope equipped with a Yokogawa Confocal Scanner Unit CSU-W1-T2, containing a spinning disk (50 µm). The microscope is equipped with two EMCCD Andor iXon Ultra cameras. Emission in the blue channel (405 nm) was filtered with a 450/50 bandpass filter, emission in the green channel (488 nm) was filtered with a 525/50 bandpass, and the emission in the red channel (641 nm) was filtered with a 708/75 bandpass filter. Fluorescence images were obtained using an oil-immersion objective with a magnification of 100 × 1.4 CFI Plan Apo Oil.\nEach experiment was repeated at least three times. The images acquired were adjusted using ImageJ2 software. Correlation coefficients were determined on entire images using JaCOP plugin.1 […]\nMCF-7 cells were seeded in a 8-µwell Ibidi plate at 25’000 cells/well in DMEM (100 µL, 10% FCS) and allowed to adhere overnight. The medium was removed. The cells were washed with PBS (200 µL, 1x) and incubated with the peptide solution at 20 µM, 10 µM, 5 µM, or 2.5 µM in DMEM (200 µL, 1% FCS) for 1 h at 37 °C. The medium was removed, and the cells were washed with PBS (200 µL, 2x).\nFor imaging of mitochondria, MitoTracker Deep Red was added as described in the manuscript. For imaging of endosomes/lysosomes, Ly s o Tr a c k e r Deep Red was added (200 µL, 20 nM in DMEM, 1% FBS) followed by incubation of the cells at 37 °C for 25 min. The medium was removed, and the cells were washed with PBS (200 µL, 2x). For imaging of the nucleus, Hoechst333342 was added at (200 µL, 2 µM in DMEM, 1% FBS) followed by incubation of the cells at 37 °C for 5 min. The cells were washed with PBS (200 µL, 2x), and FluoroBrite medium (200 µL) was added. The live cells were monitored on the confocal microscope […]\nMCF-7 cells were seeded in a 96-well plate at 7’500 cells/well in cell culture medium (200 µL, 10% FCS), and allowed to adhere overnight. The medium was removed, the cells were washed with PBS (100 µL, 1x) and incubated with the peptide solution at 20 µM, 10 µM, 5 µM, or 2.5 µM in DMEM (200 µL, 1% FCS) for 1 h at 37 °C. The medium was removed, and the cells were washed with PBS (100 µL, 1x). The MTT solution in DMEM (110 µL, 1.2 mM, 1% FBS) was added. The cells were incubated for 3 h at 37 °C. The […]"}, "[3]": {"assay": "RP-HPLC retention time as estimate of hydrophobicity (C4 column, 30 to 55% B)", "type": "physicochemical", "conditions": "RP-HPLC used as estimate of hydrophobicity, A H2O/MeCN/TFA (1000/10/1), gradient 30 to 55% B, 20 min, CF-Ahx-labelled peptides", "description": "2 (A) General structure of amphipathic peptides, CF-Ahx-[XZZ]3-NH2; CF = 5(6)-Carboxyfluorescein, Ahx = aminohexanoic acid. (B) CD spectra of the peptides, recorded at 50 μM in H2O, pH 5.7. For a comparison with a spectrum of a Gup oligomer, see Figure S2. (C) Retention time of the peptides measured by RP-HPLC on a C4 column with a mobile phase from 30 to 55% of MeCN in H2O/MeCN/TFA (1000/10/1). (D) Representative confocal microscopic images of live MCF-7 cells, incubated for 1 h at 37 °C with peptide solutions at a concentration of 10 μM in DMEM + 1% FBS (left, in green). Mitochondria were stained with Deep Red MitoTracker (middle, in red) and merged images (right, orange/yellow indicating colocalization) with Hoechst33342 stain (blue) for the nucleus. TEXT PRINTED IN THE PICTURE: (C) (ValZZ)3: tr(min): 1.8 | (C) (PheZZ)3: tr(min): 2.9 | (C) (TrpZZ)3: tr(min): 3.2 | (C) (ChaZZ)3: tr(min): 5.4 DOUBTS OF THE COPYIST ABOUT THIS PICTURE: Panel C, column head: the small lowered letter after t is read as r (tr), not certain\nThe Gup residues should preorganize the peptides into a PPII helix with one hydrophobic and two cationic edges along the PPII helical peptide. Indeed, circular dichroism (CD) spectra of the peptides display the characteristic minimum and maximum at ∼206 nm and ∼224 nm, respectively, of a PPII helix (Figure B). The spectra imply that the non-proline residues in every third position are tolerated within the helical structure. We used reverse phase high performance liquid chromatography (RP-HPLC) for an estimate of the hydrophobicity of the peptides. On a C4 column using two mobile phases A (H2O/MeCN/TFA (1000/10/1)) and B (MeCN) with a gradient of 30% to 55% B, all peptides eluted over 20 min but with different retention times (Figure C). The Cha-containing peptide had the longest retention time, indicating the highest hydrophobicity within the series, followed by the Trp-, Phe-, and Val-peptides."}, "[4]": {"conditions": "earlier work of the authors' group; ref number not given; cited from earlier work", "from_the_text": "Octa-Gup adopts a polyproline II (PPII) helix in which every third amino acid is aligned (Figure E, center). As a result, the charges are organized along the three edges of the helix. […] In contrast, more flexible analogs–octaarginine and an oligoproline with spacers between the proline backbone and the guanidinium group–are trapped in endo ..."}, "[5]": {"conditions": "10 μM peptide, MitoTracker Deep Red and Hoechst 33342 counterstain"}},
  "note": "“Also recorded” adds a separate entry of the source.",
  "data": [
    {"substance": "CF-Ahx-(ChaRR)3-NH2", "values": [
      {"measurement": "Cellular uptake compared to (ChaZZ)3 (FACS)", "setting": "[1]", "value": "enhanced cellular uptake"},
      {"measurement": "Cellular uptake and intracellular localization (confocal microscopy)", "setting": "[2]; 5 μM peptide", "value": "low uptake"},
      {"measurement": "Cellular uptake and intracellular localization (confocal microscopy)", "setting": "[2]; [5]", "value": "excluded from mitochondria"},
      {"measurement": "Cellular uptake and intracellular localization (confocal microscopy)", "setting": "[2]; 10 μM peptide, MitoTracker Deep Red and Hoechst 33342 counterstain, listed as CF-Ahx-(ChaRR)3-NH2", "value": "high uptake into the cytoplasm and the nucleus, but little to no uptake into mitochondria"}
    ]},
    {"substance": "CF-Ahx-(ChaZZ)2-NH2", "values": [
      {"measurement": "Retention time tr", "setting": "[3]", "value": 4.9, "unit": "min"},
      {"measurement": "Cellular uptake and intracellular localization (confocal microscopy)", "setting": "[2]; 20 μM peptide", "value": "did not penetrate into the cells; also recorded: intracellular fluorescence was not detected"}
    ]},
    {"substance": "CF-Ahx-VZZVZZVZZ [(ValZZ)3, 9-mer CF-Ahx-(XZZ)3-NH2 with X = valine, Z = Gup]", "values": [
      {"measurement": "Cellular uptake and intracellular localization (confocal microscopy)", "setting": "[2]; [5]", "value": "little cellular uptake"},
      {"measurement": "Cellular uptake and intracellular localization (confocal microscopy)", "setting": "[2]; 20 μM peptide", "value": "little cellular uptake"}
    ]},
    {"substance": "octaarginine", "values": [
      {"measurement": "Cellular uptake and intracellular localization", "setting": "[4]", "value": "trapped in endosomes to a significant extent and exhibit reduced cellular uptake"}
    ]}
  ]
}
